A word on the EC50: it is the concentration that produces a half-maximal response.

For 28 compounds, EC50 results are on record in patent US11654199B2 (BOLT BIOTHERAPEUTICS, INC., priority 2019, dated 2023).

In experiment [1] the target is T1, human TLR8 (Homo sapiens, UniProt Q9NR97).
T1 construct: host or cells: HEK293 reporter cells
T1 sequence (Q9NR97 27-1041): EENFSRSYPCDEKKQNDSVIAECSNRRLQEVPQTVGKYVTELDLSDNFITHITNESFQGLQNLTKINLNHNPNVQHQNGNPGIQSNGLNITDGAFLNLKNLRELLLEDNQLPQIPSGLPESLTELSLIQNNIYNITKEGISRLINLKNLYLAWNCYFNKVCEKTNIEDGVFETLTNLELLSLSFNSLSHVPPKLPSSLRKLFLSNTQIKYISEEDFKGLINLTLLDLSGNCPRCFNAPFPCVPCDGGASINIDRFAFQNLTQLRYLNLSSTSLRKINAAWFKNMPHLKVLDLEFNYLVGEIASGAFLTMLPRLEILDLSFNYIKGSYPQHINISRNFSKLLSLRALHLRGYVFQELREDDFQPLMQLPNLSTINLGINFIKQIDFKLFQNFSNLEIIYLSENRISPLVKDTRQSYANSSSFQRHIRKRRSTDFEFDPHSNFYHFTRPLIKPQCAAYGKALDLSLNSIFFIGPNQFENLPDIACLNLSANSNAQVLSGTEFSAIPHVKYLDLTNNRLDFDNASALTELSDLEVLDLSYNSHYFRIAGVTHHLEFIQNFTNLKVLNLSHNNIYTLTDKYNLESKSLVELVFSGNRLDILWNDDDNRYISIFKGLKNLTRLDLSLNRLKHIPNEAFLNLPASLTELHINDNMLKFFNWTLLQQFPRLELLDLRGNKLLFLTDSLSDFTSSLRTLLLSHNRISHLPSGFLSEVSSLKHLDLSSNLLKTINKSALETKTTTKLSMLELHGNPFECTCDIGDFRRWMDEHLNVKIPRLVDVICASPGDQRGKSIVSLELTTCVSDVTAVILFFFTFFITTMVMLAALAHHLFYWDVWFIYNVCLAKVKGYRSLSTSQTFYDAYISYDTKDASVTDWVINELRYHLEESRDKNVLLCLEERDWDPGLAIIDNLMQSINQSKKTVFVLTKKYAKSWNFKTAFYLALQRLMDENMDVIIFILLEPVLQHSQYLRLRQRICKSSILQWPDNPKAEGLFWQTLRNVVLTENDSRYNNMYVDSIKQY
Kind of experiment: HEK293 NFKB reporter assay, human TLR8. Particulars: HEK293 NFKB reporter cells expressing human TLR8; read-out: HEK293 hTLR8 EC50. Type of experiment: cell-based. The essentials: (§1)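 HEK293 NF-κB reporter cells expressing human TLR7 or TLR8 were seeded at 4×10^4 cells/well in HEK detection medium containing the stimulatory molecules. Reporter activity was read by absorbance at 620-655 nm.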
On the technique in general: Reporter assays use an easily measured gene product as a stand-in for the process of interest.

Experiment [2] addresses T2, human TLR7 (Homo sapiens, UniProt Q9NYK1).
T2 construct: host or cells: HEK293 reporter cells
T2 sequence (Q9NYK1 27-1049): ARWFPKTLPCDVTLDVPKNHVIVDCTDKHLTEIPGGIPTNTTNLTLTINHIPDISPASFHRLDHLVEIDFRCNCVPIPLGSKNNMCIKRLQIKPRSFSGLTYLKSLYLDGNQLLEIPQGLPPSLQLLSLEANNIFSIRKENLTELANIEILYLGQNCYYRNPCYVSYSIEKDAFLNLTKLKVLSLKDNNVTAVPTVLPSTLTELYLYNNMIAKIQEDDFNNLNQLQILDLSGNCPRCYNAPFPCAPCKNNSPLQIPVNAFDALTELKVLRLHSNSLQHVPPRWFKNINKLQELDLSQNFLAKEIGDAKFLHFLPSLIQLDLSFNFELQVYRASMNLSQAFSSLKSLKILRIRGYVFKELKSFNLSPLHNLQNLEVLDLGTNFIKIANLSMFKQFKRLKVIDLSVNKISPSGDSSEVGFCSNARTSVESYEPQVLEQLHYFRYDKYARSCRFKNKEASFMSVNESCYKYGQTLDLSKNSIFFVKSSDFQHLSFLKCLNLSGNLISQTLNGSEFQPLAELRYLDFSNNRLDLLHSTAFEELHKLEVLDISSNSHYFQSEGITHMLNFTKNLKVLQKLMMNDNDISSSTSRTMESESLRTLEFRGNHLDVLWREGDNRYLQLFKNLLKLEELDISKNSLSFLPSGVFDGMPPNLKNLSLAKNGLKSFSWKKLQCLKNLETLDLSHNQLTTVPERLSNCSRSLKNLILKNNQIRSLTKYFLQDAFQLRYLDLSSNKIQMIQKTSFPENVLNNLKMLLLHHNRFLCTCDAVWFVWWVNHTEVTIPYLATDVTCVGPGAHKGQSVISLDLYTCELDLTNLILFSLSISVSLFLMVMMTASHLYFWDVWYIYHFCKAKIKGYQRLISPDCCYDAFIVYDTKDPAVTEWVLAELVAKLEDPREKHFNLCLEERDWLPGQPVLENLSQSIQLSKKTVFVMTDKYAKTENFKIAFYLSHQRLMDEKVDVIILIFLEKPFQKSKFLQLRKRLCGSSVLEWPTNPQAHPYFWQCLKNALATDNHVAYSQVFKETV
Briefly: HEK293 NFKB reporter assay, human TLR7. Type of experiment: cell-based. Particulars: HEK293 NFKB reporter cells expressing human TLR7; read-out: HEK293 hTLR7 EC50. In short, it runs like this: as §1

In the case of `CCCN(OCC)C(=O)C1=Cc2sc(CCC3(O)CN(C(=O)OC(C)(C)C)C3)cc2N=C(N)C1` [TAZ-199], the EC50 in experiment [1] amounted to 1610 nM; in experiment [2], 31 nM.
Consider `CCCN(OCC)C(=O)C1=Cc2sc(CCC3(O)CNC3)cc2N=C(N)C1` [TAZ-200], for which the EC50 in experiment [1] worked out at 4070 nM; in experiment [2], 2920 nM.
In the case of `CCCN(OCC)C(=O)C1=Cc2sc(CN3Cc4ccc(NC(=O)CCNC(=O)OC(C)(C)C)cc4C3)cc2N=C(N)C1` [TAZ-202], the EC50 was found to be 1370 nM in experiment [1] and 3680 nM in experiment [2].
On to `CCCN(CCCNC(=O)OC1CCC1)C(=O)C1=Cc2sc(CNC(=O)c3ccccc3)cc2N=C(N)C1` [TAZ-203], for which the EC50 worked out at 3250 nM in experiment [1] and 3260 nM in experiment [2].
For `CCCN(CCCNC(=O)OC1CCC1)C(=O)C1=Cc2sc(CNC(=O)Cc3ccccc3)cc2N=C(N)C1` [TAZ-204], in that order: 2550 nM and 2670 nM.
The matching figures for `CCCN(OCC)C(=O)C1=Cc2sc(CN3CC4(C3)CN(C(=O)OC(C)(C)C)C4)cc2N=C(N)C1` [TAZ-208]: 8510 nM and 3610 nM.
For `CCCN(OCC)C(=O)C1=Cc2sc(CN3CC(CNC(=O)OC(C)(C)C)C3)cc2N=C(N)C1` [TAZ-210], in that order: 2940 nM and 1550 nM.
In the case of `CCCN(OCC)C(=O)C1=Cc2sc(CN3CC(C(=O)OC(C)(C)C)C3)cc2N=C(N)C1` [TAZ-212], the EC50 in experiment [1] turned out to be 2540 nM; in experiment [2] it was 1260 nM.
The matching figures for `CCCN(OCC)C(=O)C1=Cc2sc(CN3CC4(C3)CN(c3ccc(C)cc3)C4)cc2N=C(N)C1` [TAZ-219]: 847 nM and 3200 nM.
For `CCCN(OCC)C(=O)C1=Cc2sc(-c3cn[nH]c3)cc2N=C(N)C1` [TAZ-221], in that order: 6700 nM and 6120 nM.
For `CCCN(OCC)C(=O)C1=Cc2sc(CN3CCC(C(=O)OC)CC3)cc2N=C(N)C1` [TAZ-222], in that order: 2830 nM and 4890 nM.
Turning to `CCCN(OCC)C(=O)C1=Cc2sc(CN3CCC[C@@H](C(=O)OC)C3)cc2N=C(N)C1` [TAZ-223], the EC50 in experiment [1] was 3140 nM; in experiment [2], 3800 nM.
The matching figures for `CCCN(OCC)C(=O)C1=Cc2sc(CN3CCNC(=O)C3)cc2N=C(N)C1` [TAZ-224]: 2720 nM and 3410 nM.
The matching figures for `CCCN(OCC)C(=O)C1=Cc2sc(CN3CCCNCC3)cc2N=C(N)C1` [TAZ-225]: 1210 nM and 2560 nM.
Take `CCCN(OCC)C(=O)C1=Cc2sc(CN3CCCN(C(=O)OC(C)(C)C)CC3)cc2N=C(N)C1` [TAZ-226]: the EC50 in experiment [1] turned out to be 4430 nM; in experiment [2] it was 436 nM.
For `CCCN(OCC)C(=O)C1=Cc2sc(CN3CC[C@H]4NC[C@H]4C3)cc2N=C(N)C1` [TAZ-227], in that order: 2290 nM and 4390 nM.
For `CCCN(OCC)C(=O)C1=Cc2sc(CN3CC[C@@H]4[C@H](C3)CN4C(=O)OC(C)(C)C)cc2N=C(N)C1` [TAZ-228], in that order: 3240 nM and 3760 nM.
For `CCCN(OCC)C(=O)C1=Cc2sc(CN3CCC(N)C3)cc2N=C(N)C1` (centres unmarked) [TAZ-234], the EC50 in experiment [1] worked out at 361 nM; in experiment [2], 3330 nM.
For `CCCN(OCC)C(=O)C1=Cc2sc(CC3CCNC3)cc2N=C(N)C1` (centres unmarked) [TAZ-236], in that order: 423 nM and 2220 nM.
Consider `CCCN(OCCNC(=O)OC1CCC1)C(=O)C1=Cc2sc(CC3CNC3)cc2N=C(N)C1` [TAZ-238, cyclobutyl N-[2-[[5-amino-2-(azetidin-3-ylmethyl)-6H-thieno[3,2-b]azepine-7-carbonyl]-propyl-amino]oxyethyl]carbamate], for which the figures for the concentration for a half-maximal effect (EC50) in experiment [1] and in experiment [2] were 286 nM and 112 nM, respectively.
For `CCCN(OCC)C(=O)C1=Cc2sc(CN3CCC4(CCNC4)CC3)cc2N=C(N)C1` [TAZ-240], in that order: 5460 nM and 4250 nM.
Regarding `CCCN(OCC)C(=O)C1=Cc2sc(CN3CC4CCC(C3)N4C(=O)OC(C)(C)C)cc2N=C(N)C1` [TAZ-241], the EC50 in experiment [1] was 3060 nM; in experiment [2], 2810 nM.
For `CCCN(OCC)C(=O)C1=Cc2sc(CCCN3CCNCC3)cc2N=C(N)C1` [TAZ-244], in that order: 146 nM and 2460 nM.
For `CCCN(OCC)C(=O)C1=Cc2sc(CN3CC4CCC(C3)N4)cc2N=C(N)C1` [TAZ-245], in that order: 145 nM and 5020 nM.
The matching figures for `CCCN(OC(C)C)C(=O)C1=Cc2sc(CC3CN(C(=O)OC(C)(C)C)C3)cc2N=C(N)C1` [TAZ-249]: 640 nM and 362 nM.
For the compound `CCCN(OCC)C(=O)C1=Cc2sc(CC3CN(C(C)=O)C3)cc2N=C(N)C1` [TAZ-252], the EC50 in experiment [1] came out at 868 nM; in experiment [2] it was 4450 nM.
In the case of `CCCN(OC(C)C)C(=O)C1=Cc2sc(CC3CNC3)cc2N=C(N)C1` [TAZ-253, 5-amino-2-(azetidin-3-ylmethyl)-N-isopropoxy-N-propyl-6H-thieno[3,2-b]azepine-7-carboxamide], the EC50 in experiment [1] was 192 nM; in experiment [2], 7170 nM.
For `CCON(C(=O)C1=Cc2sc(CC3CN(C(=O)OC(C)(C)C)C3)cc2N=C(N)C1)C(C)CC` (centres unmarked) [TAZ-254], in that order: 8270 nM and 8130 nM.
